Test results as given in the METLIN SMRT retention time set (Domingo-Almenara et al. 2019).

Assay: gradient 5% acetonitrile 3 min, to 50% in 2 min, to 85% in 15 min, held 3 min, 100 µL/min
Details: column: Zorbax Extend-C18 2.1 x 50 mm; eluents: water / acetonitrile, 0.1% formic acid
Method in brief: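 The system's dead and dwell volumes were 40 μL and 900 μL, with a Zorbax Extend-C18 column (2.1 × 50 mm, 1.8 μm) run at 100 μL/min in water and acetonitrile containing 0.1% formic acid each. Pure standards were analyzed in mixtures of ~100 molecules by HPLC–quadrupole time-of-flight mass spectrometry in positive and negative ionization mode. Retention time was assigned from computationally picked, manually inspected adduct peaks.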

| Structure (SMILES) | RP-LC retention time |
| --- | --- |
| O=C(NCc1ccccc1)Nc1c(-c2ccccc2)nc2ccccn12 | 626 s |
| CC(C)CCNC(=O)C1(C)Cn2nc(C(=O)NCCc3ccc(Cl)cc3)cc2C(=O)N1C (configuration not stated) | 845 s |
| COc1cccc(NC(=O)C2CCN(S(=O)(=O)c3c(C)nn(-c4ccccc4)c3C)CC2)c1 | 940 s |
| COc1cccc(NC(=O)Cn2c3ccccc3n3c(=O)cc(-c4ccc(F)cc4)nc23)c1 | 961 s |
| Cc1ccc(-n2c(N3CCCC(C(=O)Nc4ccc(F)c(C)c4)C3)nc3ccsc3c2=O)cc1 (configuration not stated) | 1040 s |
| CCOC(=O)C1CCN(C(=O)Cn2c(=O)c3nnc(C)n3c3ncccc32)CC1 | 780 s |
| O=C(NCCc1ccccc1)C(=O)c1ccc[nH]1 | 824 s |
| CS(=O)(=O)N1CCC(C(=O)NCc2ccccc2)Oc2ccc(Cl)cc21 (configuration not stated) | 882 s |
| CC(=O)N1c2ccc(S(=O)(=O)N3CCC(C(=O)NC(C)c4ccccc4)CC3)cc2CC1C (configuration not stated) | 733 s |
| O=C(Nc1ccccc1)C1CCCN(c2nc3ccsc3c(=O)n2Cc2ccc(F)cc2)C1 (configuration not stated) | 971 s |
| Cc1ccc(C(=O)N2CCN(c3ccc(-c4nc(C)c(C)s4)cn3)CC2)s1 | 891 s |
| Cn1cc(-c2ccncc2)cc1C(=O)NCc1ccc(Cl)cc1 | 646 s |
| Cc1cc(=O)n(CC(=O)N2CCCc3ccccc32)c(N2CCCC2)n1 | 665 s |
| Cc1nc(-c2ccc(N3CCN(C(=O)c4cccs4)CC3)nc2)sc1C | 823 s |
| CCc1nnc(-c2cn(CC(=O)Nc3c(Cl)cc(OC)cc3OC)c3ccccc23)o1 | 909 s |
| CC(C)N1CCN(c2ncccc2-c2nnc(-c3ccc(Cl)cc3)o2)CC1 | 670 s |
| CCOc1nc2ccccc2nc1N1CCCC(C(=O)Nc2ccc(Br)cc2)C1 (configuration not stated) | 1340 s |
| COC(=O)c1cn(CC(=O)NCc2cc3c(cc2OC)OCCCO3)c2ccccc12 | 897 s |
| CN(C)S(=O)(=O)c1ccc2c(c1)N(CC(=O)NCc1ccccn1)C(=O)C1CCCCN21 (configuration not stated) | 646 s |
| Cc1sc2ccn(CC(C)C)c(=O)c2c1C(=O)N(C)Cc1ccccc1 | 917 s |
| CCC(C)NC(=O)c1ccc2c(c1)Sc1ncccc1C(=O)N2CC (configuration not stated) | 749 s |

| Structure (SMILES) | RP-LC retention time |
| --- | --- |
| Cc1cc(C)cc(NS(=O)(=O)c2cc(-c3[nH]ncc3C(=O)N(C)C)oc2C)c1 | 718 s |
| COc1ccc(-n2nc(C(F)(F)F)cc2-c2ccc(Cl)cc2)cc1 | 1250 s |
| Cc1ccccc1CC(=O)N1CCC2(CC1)NC(=O)c1ccc(F)cc1N2C | 798 s |
| CC(C)N1C(=O)c2cccnc2Sc2cc(NC(=O)C3CCOC3)ccc21 (configuration not stated) | 680 s |
| O=C(CCn1nnc2cc(S(=O)(=O)N3CCCCC3)ccc21)N1CCN(c2ccccn2)CC1 | 665 s |
| CCOc1ccccc1NC(=O)CN1C(=O)CCc2cc(Br)ccc21 | 1000 s |
| CCn1c(C(=O)N(C)C2CCCCC2)cc2c(=O)oc3ccccc3c21 | 1010 s |
| CC(NC(=O)c1ccco1)c1nc2ccccc2n1CC(=O)N(C)c1ccccc1 (configuration not stated) | 694 s |
| CCOC(=O)c1cnc2nc(C)ccc2c1Nc1ccc(F)cc1 | 672 s |
| CCOC(=O)c1c(C)[nH]c(C(=O)N2CCC(CC(=O)NCCN3CCOCC3)CC2)c1C | 575 s |
| O=C(NCC1CCCO1)N1CCCn2nc(-c3ccncc3)cc2C1 (configuration not stated) | 551 s |
| CC(=O)Oc1ccc(C(=O)NCCc2c[nH]c3ccc(Cl)cc23)cc1 | 853 s |
| Cc1ccc(NC(=O)Cn2nc(N3CCSCC3)c3ccccc3c2=O)cc1F | 976 s |
| Cc1cc(C)c(S(=O)(=O)N2CCC(n3cnc4ccc(C)cc4c3=O)CC2)c(C)c1 | 640 s |
| Nc1ncnc2c1ncn2C1CCCC1 | 595 s |
| Cc1oc(-c2ccc(NC(=O)COc3ccccc3)cc2)nc1Cn1cccn1 | 887 s |
| CN(C)c1ccc(-c2nc3ncc(Cl)c(N4CCN(CC(=O)Nc5nccs5)CC4)c3[nH]2)cc1 | 704 s |
| CCOC(=O)c1c(C)[nH]c(C(=O)N2CCC(CC(=O)NC3CCCCC3)CC2)c1C | 778 s |
| CN1CCCc2cc(C(=O)NCc3ccc(F)cc3)sc21 | 906 s |
| CC(=O)Nc1ccc(NC(=O)C(=O)NCCN2CCN(c3ccc(Cl)cc3)CC2)cc1 | 588 s |
| O=C(Cn1cccc(-c2nc(-c3ccc(Br)cc3)no2)c1=O)N1CCCc2ccccc21 | 1070 s |

Continued, values first:

| RP-LC retention time | Structure (SMILES) |
| --- | --- |
| 665 s | CCOc1ccc(S(=O)(=O)N2CCC(C(=O)NCCO)CC2)cc1 |
| 975 s | CCCCN(CC)c1nc(-c2ccc([N+](=O)[O-])cc2)nc2ccccc12 |
| 938 s | Cc1csc(-c2ccc(CNC(=O)c3cc4ccccc4[nH]3)cc2)n1 |
| 807 s | CN1C(=O)C2(CCN(C(=O)NC3CCCCC3)CC2)c2ccccc21 |
| 902 s | COc1ccc(-c2ncc(C(=O)Nc3ccc(OC)c(Cl)c3)c(-c3ccncc3)n2)cc1 |
| 759 s | Cc1ccn2cc(-c3ccc(C)c(NS(=O)(=O)c4cc(C)c(C)cc4C)c3)nc2c1 |
| 605 s | COc1ccc(CCNS(=O)(=O)c2c(N)n(C)c(=O)n(C)c2=O)cc1OC |
| 928 s | CSc1cccc(NC(=O)Cn2c(=O)cc(-c3nc(C(C)C)no3)c3ccccc32)c1 |
| 904 s | Nc1nc(-c2ccccc2)nn1C(=O)c1ccccc1 |
| 897 s | O=C(Nc1ccc(F)cc1F)C1CCCN(S(=O)(=O)c2c[nH]c(C(=O)N3CCCCCC3)c2)C1 (configuration not stated) |
| 673 s | O=S(=O)(Nc1cccc(-c2cn3ccccc3n2)c1)c1ccc(Br)cc1 |
| 547 s | COC(=O)CC1=CC(SCC(=O)NC2CCc3ccccc32)=Nc2ccccc2N1 (configuration not stated) |
| 688 s | COCCc1noc(-c2cnc3nc(C)ccc3c2Nc2ccc(F)cc2)n1 |
| 933 s | COc1ccccc1CNC(=O)c1c(O)c2cccnc2[nH]c1=O |
| 662 s | CCOCc1nc2c(N)nc3ccccc3c2n1CC(C)(C)O |
| 893 s | CCOc1ccc(N2C=C(C(=O)N3CCOCC3)S(=O)(=O)c3ccc(Cl)cc32)cc1 |
| 776 s | CC(CNC(=O)C1CCN(C(=O)C2Sc3ccccc3NC2=O)CC1)c1ccccc1 (configuration not stated) |
| 830 s | Cc1c(C(=O)NC2CC2)cc(-c2ccc(F)cc2)n1C |
| 695 s | CCc1noc(NC(C)=O)c1-c1ccc(OC)c(S(=O)(=O)NC(C)C)c1 |
| 671 s | CC1CCN(c2ccc(NC(=O)CN3C(=O)CN(C)C(=O)c4ccccc43)cc2)CC1 |
| 615 s | Cc1nn(CC(=O)NCc2ccncc2)c(=O)c2nc(-c3ccccc3)sc12 |
| 812 s | COC1=CC(=O)C[C@@H](C)C12Oc1c(Cl)c(OC)cc(OC)c1C2=O (some centres not stated) |
| 1430 s | CCOc1cccc(C(=O)Nc2nc(-c3ccc(C(C)(C)C)cc3)cs2)c1 |

| RP-LC retention time | Structure (SMILES) |
| --- | --- |
| 656 s | O=C(N[C@H]1C[C@@H]2C[C@H]1N(C(=O)COc1cccc(Cl)c1)C2)c1cccnc1 |
| 1030 s | Cc1cc(F)ccc1NC(=O)c1cc(C2CC2)n2nccc2n1 |
| 1110 s | O=C(Nc1ccc(F)c(F)c1)C1CCN(c2nccnc2Sc2ccccc2)CC1 |
| 838 s | O=C(NC1CCCCC1)c1cccc(Nc2c(-c3ccccc3)nc3cnccn23)c1 |
| 804 s | Cc1cc(F)ccc1N1C(=O)CN(S(C)(=O)=O)CC1(C)C(=O)NCc1ccccc1 (configuration not stated) |
| 645 s | O=C(c1ccc(Cn2c(=O)c3cccn3c3cccnc32)cc1)N1CCN(c2ccccn2)CC1 |
| 1360 s | CC(C)(C)c1ccc(-c2noc(Cn3c(=O)n(CCc4ccccc4)c(=O)c4sccc43)n2)cc1 |
| 952 s | Cc1cc(NC(=O)C(C)C2CCN(C(=O)Nc3ccc(Cl)cc3)CC2)ccc1F (configuration not stated) |
| 601 s | CC(C)n1ccnc(N2CCOCC2)c1=O |
| 578 s | Cc1noc(C)c1CN1CCC(NC(=O)c2cccc(C#N)c2)C1 (configuration not stated) |
| 714 s | Cc1cccc(CNC(=O)c2ccc(CN3CCN(C(C)C)C(=O)C3=O)cc2)c1 |
| 731 s | COCC(=O)N1CC(c2nc(-c3ccc(F)cc3)no2)C2(CCOCC2)C1 (configuration not stated) |
| 1080 s | CCOc1ccc(N2C(=O)C3N=NN(Cc4nc(-c5cccc(C(F)(F)F)c5)no4)C3C2=O)cc1 (configuration not stated) |
| 737 s | Cc1ccc2c(Nc3ccc(C(C)C)cc3)c(C(=O)N3CCCCC3C)cnc2n1 (configuration not stated) |
| 882 s | CCc1ccc(NC(=O)Cn2c(=O)c3cc(-c4ccco4)nn3c3ncccc32)cc1 |
| 856 s | Cc1cccc(Nc2nc(C(=O)NCc3ccc(C)o3)nc3ccccc23)c1 |
| 867 s | CCOC(=O)c1[nH]c(C)c(CCC(=O)N2CCC(C(=O)NCc3ccc(CC)cc3)CC2)c1C |
| 1150 s | CCOc1ccc(Cl)cc1S(=O)(=O)N1CCC(C(=O)Nc2ccc3c(c2)OCCO3)CC1 |
| 1180 s | Cc1cccc(-c2noc(-c3nn(CC(=O)NC4CCCC4)c4ccccc34)n2)c1 |
| 847 s | O=C(c1ccccc1F)N1CCC(CNS(=O)(=O)c2ccc(C(F)(F)F)cc2)CC1 |
| 577 s | O=C(NCc1ccccn1)C1CCN(c2cc(Oc3ccccc3)ncn2)CC1 |
| 749 s | CCC(CC)C(=O)N1CCC(Oc2nccnc2N(C)C)C1 (configuration not stated) |
